Experimental data reported in ChEMBL document CHEMBL4387751, “Development of substituted pyrido[3,2-d]pyrimidines as potent and selective dihydrofolate reductase inhibitors for pneumocystis pneumonia infection” (Bioorg Med Chem Lett, 2019).

What was measured:
Dihydrofolate reductase [1] = biological target: T1, Dihydrofolate reductase (Homo sapiens, UniProt P00374); test: Inhibition of recombinant human DHFR assessed as reduction in consumption of NADPH using 9 uM DHFA as substrate
T1 sequence (P00374 whole entry): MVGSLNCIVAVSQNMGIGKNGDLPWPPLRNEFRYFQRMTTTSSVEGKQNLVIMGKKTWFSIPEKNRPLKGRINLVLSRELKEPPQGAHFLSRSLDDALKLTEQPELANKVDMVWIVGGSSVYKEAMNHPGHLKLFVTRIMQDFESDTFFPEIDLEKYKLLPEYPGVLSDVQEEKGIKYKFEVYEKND

[2] = test system: DHFR (human versus Pneumocystis jirovecii); test: Selectivity ratio of IC50 for inhibition of recombinant human DHFR using 9 uM DHFA as substrate to IC50 for inhibition of Pneumocystis jirovecii DHFR using 9 uM DHFA as substrate; format: toxicity; settings: recombinant human DHFR and Pneumocystis jirovecii DHFR, probe DHFA (substrate), read-out: Ratio IC50
[3] = Inhibition of Pneumocystis jirovecii DHFR expressed in Escherichia coli Rosetta-gami B (DE3) assessed as reduction in consumption of NADPH using 9 uM DHFA as substrate
[4] = Inhibition of Pneumocystis jirovecii DHFR expressed in Escherichia coli Rosetta-gami B (DE3) assessed as reduction in consumption of NADPH using 18 uM DHFA as substrate
[5] = test system: DHFR (human versus Pneumocystis jirovecii); test: Selectivity ratio of IC50 for inhibition of recombinant human DHFR using 18 uM DHFA as substrate to IC50 for inhibition of Pneumocystis jirovecii DHFR using 18 uM DHFA as substrate; format: toxicity; settings: recombinant human DHFR and Pneumocystis jirovecii DHFR, probe DHFA (substrate), read-out: Ratio IC50
Dihydrofolate reductase [6] = biological target: T2, Dihydrofolate reductase (Rattus norvegicus, UniProt Q920D2); test: Inhibition of rat liver DHFR assessed as reduction in consumption of NADPH using DHFA as substrate
T2 sequence (Q920D2 whole entry): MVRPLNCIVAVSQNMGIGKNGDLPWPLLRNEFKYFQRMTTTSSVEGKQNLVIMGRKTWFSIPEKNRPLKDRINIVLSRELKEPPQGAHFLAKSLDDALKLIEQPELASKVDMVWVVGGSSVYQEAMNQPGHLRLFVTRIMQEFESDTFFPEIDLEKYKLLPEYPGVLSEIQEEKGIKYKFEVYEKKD

[7] = Inhibition of Pneumocystis carinii DHFR expressed in Escherichia coli Rosetta-gami B (DE3) assessed as reduction in consumption of NADPH using DHFA as substrate

Compound | IC50 (Dihydrofolate reductase [1]) | selectivity ratio [2] | IC50 [3] | IC50 [4] | further results
Nc1nc(N)c2nc(Nc3ccc4ccccc4c3)ccc2n1 | 3180 nM | 12 | 275 nM |  | 
Nc1nc(N)c2nc(Nc3ccccc3)ccc2n1 | 1530 nM | 13 | 122 nM |  | 
COc1ccc(Nc2ccc3nc(N)nc(N)c3n2)cc1 | 2460 nM |  | 239 nM |  | 
Nc1nc(N)c2cc(Nc3ccccc3)cnc2n1 |  |  |  | 300 nM | selectivity ratio [5]: < 1
COc1ccc(Nc2cnc3nc(N)nc(N)c3c2)cc1 |  |  |  | 400 nM | 
Cc1ccc(Nc2cnc3nc(N)nc(N)c3c2)cc1 |  |  |  | 620 nM | selectivity ratio [5]: 3
Nc1nc(N)c2cc(Nc3ccc4ccccc4c3)cnc2n1 |  |  |  | 400 nM | selectivity ratio [5]: 5
Nc1nc(N)c2cc(Nc3cccc4ccccc34)cnc2n1 |  |  |  | 250 nM | selectivity ratio [5]: 8
Nc1nc(N)c2cc(Nc3cc(F)c(F)c(F)c3)cnc2n1 |  |  |  | 870 nM | selectivity ratio [5]: 4
COc1ccc(OC)c(NCc2cnc3nc(N)nc(N)c3c2)c1 |  |  |  |  | IC50 (Dihydrofolate reductase [6]): 500 nM
CCCCN(c1ccccc1)c1ccc2nc(N)nc(N)c2n1 |  |  | 66 nM |  | 
Nc1nc(N)c2nc(Nc3cccc4ccccc34)ccc2n1 | 1100 nM | 10 | 112 nM |  | 
Cc1ccc(Nc2ccc3nc(N)nc(N)c3n2)cc1 | 2630 nM | 15 | 174 nM |  | 
Nc1nc(N)c2nc(Nc3ccc(F)c(F)c3)ccc2n1 | 2250 nM | 28 | 80 nM |  | 
Nc1nc(N)c2nc(Nc3cc(F)c(F)c(F)c3)ccc2n1 |  | 12 | 155 nM |  | 
CCN(c1ccccc1)c1ccc2nc(N)nc(N)c2n1 |  |  | 150 nM |  | 
Nc1nc(N)c2nc(Nc3ccc(O)cc3)ccc2n1 | 1580 nM | 10 | 150 nM |  | 
COc1ccc(OC)c(NCc2ccc3nc(N)nc(N)c3n2)c1 |  |  |  |  | IC50 [7]: 1400 nM
COc1cc(NCc2ccc3nc(N)nc(N)c3c2C)cc(OC)c1OC [TRIMETREXATE] |  |  |  | 2.1 nM | 
